Key:
Mino cells = experiment: Viability measurements, Mino cells; type: cell-based; details: Mino, 72 h
Procedure: (§1) Cells were seeded in a transparent-bottom, black 96-well plate, at 15,000 cells per well in sixfold replications. in 90 µl of medium and left to adhere for at least 4 h. The cells were then treated with the respective compound by adding 10 µl of medium–-compound mixture for a final volume of 100 µl in each well. Cell-Titer blue reagent was used to measure viability according to the manufacturer’s instructions. Plate reader measurements were performed on a Tecan Spark Control 10 M fluorescence system.

recombinant Keap1 BTB = biological target: T1, recombinant Keap1 BTB (Homo sapiens, UniProt Q14145, S172A); experiment: In vitro crosslinking of Keap1 BTB using GA; type: biochemical; details: 50 µM Keap1, 50 µM compound
T1 construct: The Keap1 BTB domain (48–180) encoding the single substitution S172A was cloned into pET28-bdSumo vector; His–bdSumo (N, cleaved yes); made in house; host or cells: E. coli BL21(DE3)
T1 sequence (Q14145 48-180 S172A): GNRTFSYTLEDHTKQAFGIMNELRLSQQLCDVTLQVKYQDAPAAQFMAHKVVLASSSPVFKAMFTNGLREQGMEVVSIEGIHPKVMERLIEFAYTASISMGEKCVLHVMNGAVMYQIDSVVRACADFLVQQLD
Procedure: Recombinant Keap1 samples were incubated at room temperature in desired conditions in a buffer containing 25 mM HEPES, 150 mM NaCl pH 8, 1 mM TCEP and 0.01% Tween. At the selected time point, each sample was treated with a 7.5% aqueous solution of GA (prepared fresh) for a final GA concentration of 0.125% and mixed gently. The crosslinking reaction was left at room temperature for 40 min, followed by addition of NuPage gel sample buffer with 20 mM DTT and boiling at 95 °C for 5 min. Lastly, 2–3 μg of each sample was loaded and run on an SDS–PAGE gel. Bands were visualized using a Coomassie blue solution.

U2OS cells = experiment: Viability measurements, U2OS cells; type: cell-based
Procedure: as §1

[1] = test system: RAS GTPase-activating protein-binding protein 1; experiment: Colocalization with RAS GTPase-activating protein-binding protein 1 (stress granules); type: cell-based
Keap1 = Keap1 (Homo sapiens, UniProt Q14145); experiment: Immunostaining of endogenous Keap1 puncta in U2OS cells; type: cell-based; set-up: We visualized the subcellular localization of endogenous Keap1 following PINCH treatment by immunofluorescence in U2OS cells; endogenous in cells; host or cells: U2OS (ATCC HTB-96); details: 250 nM
Chain of Keap1 (Q14145 whole entry): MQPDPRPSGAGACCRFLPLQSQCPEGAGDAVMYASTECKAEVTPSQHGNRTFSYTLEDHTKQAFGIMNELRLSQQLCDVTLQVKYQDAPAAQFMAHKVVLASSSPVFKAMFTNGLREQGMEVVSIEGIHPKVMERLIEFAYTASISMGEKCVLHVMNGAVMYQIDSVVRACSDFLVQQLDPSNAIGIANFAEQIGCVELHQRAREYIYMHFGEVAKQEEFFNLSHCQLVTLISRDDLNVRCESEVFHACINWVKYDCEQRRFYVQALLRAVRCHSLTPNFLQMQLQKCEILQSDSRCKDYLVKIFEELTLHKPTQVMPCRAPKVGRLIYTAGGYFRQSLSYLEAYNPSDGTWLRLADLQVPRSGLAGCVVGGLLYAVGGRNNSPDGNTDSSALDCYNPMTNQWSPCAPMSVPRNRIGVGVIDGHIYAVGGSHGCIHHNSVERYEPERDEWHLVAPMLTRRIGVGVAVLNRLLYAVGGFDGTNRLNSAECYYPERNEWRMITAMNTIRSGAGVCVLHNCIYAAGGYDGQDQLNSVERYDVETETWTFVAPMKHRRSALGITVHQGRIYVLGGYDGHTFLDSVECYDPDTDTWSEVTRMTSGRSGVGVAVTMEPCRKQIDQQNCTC
Procedure: The cells were then blocked with 5% BSA for 60 min at room temperature. Cells were stained with primary antibody, at a concentration of 1:100, for 3 h at room temperature and were then subjected to a secondary antibody conjugated to Alexa Fluor, at a concentration of 1:100–500, for 1 h at room temperature. Lastly, cells were also stained with DAPI for 10 min at room temperature.
Imaging of the cells was performed using a Dragonfly spinning disk confocal system (Andor Technology) connected to an inverted Leica Dmi8 microscope (Leica Microsystems). The signals were detected using a scientific complementary metal–oxide–semiconductor Zyla (Andor) 2,048 × 2,048 camera and the bit depth was 16. At the specified intervals, Z stacks (0.17 µm) of selected cells were acquired with an HC PL APO ×63/1.3 GLYC CORR CS2 objective (506353, Leica Microsystems).
Automatic aggregate segmentation was conducted using the surface module with manual threshold fixed for all images of the same experiment (default 2-pixel smoothing, background subtraction with 0.9-μm largest sphere, morphological split with 0.5-μm seed point diameter). […]
Spots were considered colocalized if their centers were up to 1 μm apart. We manually segmented each cell in 3D using the Surface module and quantified the number percentage and the total puncta volume percentage of colocalized spots for each cell.

difference in viability IC50 over BDX (U2OS cells): threefold | IC50 (U2OS cells; Homo sapiens, 72 h): 0.254 µM | Keap1 puncta (immunofluorescence) (Keap1): bright punctate structures
Compound: CC1(C)CCC2(C(=O)NCCOCCOCCNC(=O)C34CCC(C)(C)CC3C3C(=O)C=C5C6(C)C=C(C#N)C(=O)C(C)(C)C6CCC5(C)C3(C)CC4)CCC3(C)C(C(=O)C=C4C5(C)C=C(C#N)C(=O)C(C)(C)C5CCC43C)C2C1 (stereo not drawn) [EL133]
additional viability loss compared with BDX (Mino cells): no additional viability loss | higher-order assemblies after GA crosslinking (SDS–PAGE) (recombinant Keap1 BTB): induced the formation of higher-order assemblies | formation of stress granules [1]: does not induce the formation of its characteristic stress granules

Reference: publication PMC13503280, “A pharmacological modality to sequester homomeric proteins” (Nature Chemical Biology, 2026)
